Reference: patent US11129801B2 (SigmaThera SAS, priority 2016, dated 2021)

Key:
[1] = tested on: sigma-1R; details: cited from earlier work
[2] = tested on: sigma-1 receptor / BiP complex; assay: Dissociation of BiP from sigma-1 receptor in CHO cells; type: cell-based; details: 10 μM NE100 with 10 μM igmesine
Procedure: CHO cells were grown in a 6-well plates and treated with the compounds in culture medium at 37° C. for 30 min at 1 μM and 10 μM final concentration. The reaction was stopped by medium removal and adding 3 mL PBS at 37° C. CHO cells were harvested and suspended in 50 mM HEPES (pH7.4) followed by cross-linking with 50 μg/ml of dithio (bis) succinimidyl propionate (Thermo Fisher Scientific, Waltham, Mass.) for 30 min at 4° C. The reaction was stopped by adding Tris-HCl (pH 8.8, final 50 mM). Fifteen minutes after incubation on ice, cells were lysed with RIPA buffer [50 mM Tris (pH7.4), 150 mM NaCl, 1% Triton X-100, 0.3% sodium deoxycholate, 0.1% SDS, protease inhibitor cocktail (Roche Complete)]. After centrifugation at 12,000 g, 1 min, the supernatant was incubated overnight at 4° C. with Sig-1R antibody (Abcam). The cell lysate was incubated with Sepharose protein-A (Invitrogen) for 90 min. After centrifugation at 12,000 g, 1 min, the supernatant was discarded and the pellet was washed in 0.5 mL RIPA buffer. After a second centrifugation at 12,000 g, 20 min, the supernatant was discarded and the pellet was washed in 0.5 mL 2× Sample buffer/bMCE buffer. Following a third centrifugation at 12,000 g, 1 min, the supernatant was analysed by ELISA assay, according to the manufacturer's protocol (USCNK #SEC343Mu).

[3] = tested on: Aβ25-35 mouse model of Alzheimer's disease; assay: Aβ25-35 mouse model, overall neuroprotection (summary statements); type: in vivo; details: versus usual doses; ibuprofen, atorvastatin after allometric scaling mouse to human
Procedure: (§1) The compound efficacy was evaluated 7 days after the peptide administration on the attenuation of the Aβ25-35-induced learning deficits (spatial working memory using the spontaneous alternation in the Y-maze test, and contextual long-term memory using the passive avoidance test).
(§2) The mice were tested 7 days post injection or at the indicated time points.
(§3) In Experiment 2, twelve mice per experimental group were administered Sc.Aβ or Aβ25-35-amyloid peptide on day 0 by i.c.v. injection. […] Animals were tested at day 7 and later.
(§4) The synergy/additivity/antagonism was evaluated by calculating the combination index. […] Animals were then tested at day 7 and later.
(§5) Animals were tested at day 7 and later.
(§6) For each of Experiments 1-4, on day 7, all animals were tested for the spontaneous alternation performance in the Y-maze test, an index of spatial working memory. On day 8 and 9, the contextual long-term memory of the animals was assessed using the step-through type passive avoidance procedure. On day 9, immediately after the retention session, animals were sacrificed by decapitation and the hippocampus and cortex dissected out. Lipid peroxidation was analyzed in the hippocampus, whereas neuroinflammation, apoptosis, amyloid burden and hyperphosphorylation of tau protein were analyzed in cortex.

[4] = tested on: Aβ25-35 mouse model of Alzheimer's disease; assay: Spontaneous alternation in the Y-maze, Aβ25-35 mouse model; type: in vivo; details: for protection from injury produced by Aβ25-35 treatment, single agent: Experiment 4, i.p. day 1 to day 6, dose dependent; for highest sub-active dose, spontaneous alternation: Experiment 3, i.p.
Procedure: as §1, §2, §3, §4, §5, §6
The homogeneous oligomeric preparation of Aβ25-35 peptide was performed according to the AMYLGEN's own procedure. Each mouse was anesthetized with isoflurane 2.5% and injected i.c.v. with Aβ25-35 peptide (9 nmol/mouse) or Sc.Aβ peptide (9 nmol/mouse), in a final volume of 3 μl/mouse, according to the previously described method (Maurice T, et al. (1996). Brain Res. 706(2): 181-193, Maurice T, et al. (1998) Neuroscience 83(2): 413-428, Meunier J, et al. (2006) British J. Pharmacol. 149(8): 998-1012, Villard V, et al. (2009) Neuropsychopharmacology 34(6): 1552-1566, Villard V, et al. (2011) J. Pharmacol. Sci. 115(3): 279-292).
Animals: Male Swiss mice, 6 weeks old and weighing 30-35 g, from JANVIER (Saint Berthevin, France), were kept for housing and experiments took place within the animal facility building of the University of Montpellier 2 (CECEMA, Office of Veterinary Services agreement #B-34-172-23). Animals were housed in groups with access to food and water ad libitum, except during behavioral experiments. They were kept in a temperature and humidity controlled animal facility on a 12 h/12 h light/dark cycle (lights off at 07:00 pm). Mice were numbered by marking their tail using permanent markers. All animal procedures were conducted in strict adherence to the European Union directive of Sep. 22, 2010 (2010/63/UE). Diagnostic summary reports of JANVIER were annexed to the study report.
Spontaneous alternation performance: Immediate working memory performance was assessed by recording spontaneous alternation behavior during a single session in a Y-maze as described previously (Itoh J, et al. (1993) Eur J Pharmacol 236(3): 341-345; Hiramatsu M and Inoue K (1999) Br J Pharmacol 127(3): 655-660). The Y-maze is made of grey polyvinylchloride. Each arm of the Y-maze was 40 cm long, 3 cm wide, and 13 cm high at the bottom, 10 cm wide at the top, and converging at an equal angle. Each mouse was placed at the end of one arm and allowed to move freely through the maze during an 8 min session. The series of arm entries, including possible returns into the same arm, was checked visually. An alternation was defined as entries into all three arms on consecutive occasions. The number of maximum alternations is therefore the total number of arm entries minus two and the percentage of alternation was calculated as (actual alternations/maximum alternations)×100. Parameters included the percentage of alternation (memory index) and total number of arm entries (exploration index).

SMILES | lowering of the partner drug's dose when associated with igmesine [3] [fold] | protection from injury produced by Aβ25-35 treatment, single agent [4] | further results
CCC(C/C=C/c1ccccc1)(c1ccccc1)N(C)CC1CC1 (stereo not shown) [JO-1783, reference compound] |  |  | potency relative to igmesine at the binding site [1]: ten times less potent
CCCN(CCC)CCc1ccc(OC)c(OCCc2ccccc2)c1 [NE100, reference compound] |  |  | antagonism of igmesine-induced BiP dissociation [2]: prevented
CC(C)c1c(C(=O)Nc2ccccc2)c(-c2ccccc2)c(-c2ccc(F)cc2)n1CC[C@@H](O)C[C@@H](O)CC(=O)O [atorvastatin, reference compound] | 10 | able to protect | 
COc1cc2c(cc1OC)C(=O)C(CC1CCN(Cc3ccccc3)CC1)C2 (stereo not shown) [donepezil, reference compound] | 4 |  | highest sub-active dose, spontaneous alternation [4]: 0.25 mg/kg
CC(C)Cc1ccc(C(C)C(=O)O)cc1 (stereo not shown) [ibuprofen, reference compound] | 3 | able to protect | 
CC12CC3CC(C)(C1)CC(N)(C3)C2 [memantine] |  |  | highest sub-active dose, spontaneous alternation [4]: 0.5 mg/kg
C#CCN(C)[C@H](C)Cc1ccccc1 [selegiline] |  | able to protect | 
